Key:
Format in all cases: cell-based
Gram- bacterial strains = experiment: Mean MIC in broth and resistant strain number, Gram- strains; conditions: 18 h, read-out: Mean MIC values
Experimental: (§1) MICs were determined by a standard microdilution test, using serial two-fold dilutions of the substances in Mueller-Hinton broth.
(§2) The inoculum was prepared from an overnight culture in Mueller-Hinton broth matching the 0.5 Mc Farland (turbidity) standard (BRAY W. E., Clinical Laboratory Methods, 5th Ed. C. V. MOSBY, St. Louis, Mo. 1957), and was adjusted to a final concentration of 5.0×10^4 colony-forming units/ml.
(§3) Equal volumes (0.1 ml) of both bacterial suspensions and substance solutions were distributed in microtiter plates (Falcon, 96 wells, round bottom), and then placed in a humidified incubator (37° C.) for 18 hours.
(§4) Evaluation of the Minimal Inhibitory Concentration (MIC) in broth of 16 new substances for Gram- bacterial strains.
(§5) The following strains were used: Enterobacter (1), Escherichia (3), Klebsiella (3), Proteus (3); Pseudomonas (2); Salmonella (2), Serratia (1).

[1] = test system: Streptococcus faecalis (UM); experiment: MIC in broth, Gram+ strains; conditions: Enterococcus faecalis; S. faecalis (UM), Mueller-Hinton broth, 37° C., 18 hours; read-out: Minimal Inhibitory Concentration (MIC)
Experimental: (§6) Evaluation of the Minimal Inhibitory Concentration (MIC) in broth of 15 new substances for Gram+ bacterial strains.
(§7) The following strains were used: Staphylococcus aureus (4); Streptococcus faecalis (8); Bacillus pumilus (1); Bacillus subtilis (1).
as §1, §2, §3
(§8) The results, in terms of MIC values, resistant strain number and mean MIC values versus susceptible strains, are illustrated in Tables 1-6.

[2] = test system: Staphylococcus aureus (303); experiment: MIC in broth, Gram+ strains; conditions: S. aureus (303), Mueller-Hinton broth, 37° C., 18 hours, read-out: Minimal Inhibitory Concentration (MIC)
Experimental: as §6, §7, §1, §2, §3, §8

[3] = test system: Staphylococcus aureus (ATCC 14154); experiment: MIC in broth, Gram+ strains; conditions: ATCC14154, S. aureus (ATCC 14154), Mueller-Hinton broth, 37° C., 18 hours, read-out: Minimal Inhibitory Concentration (MIC)
Experimental: as §6, §7, §1, §2, §3, §8

[4] = test system: Streptococcus faecalis (518); experiment: MIC in broth, Gram+ strains; conditions: Enterococcus faecalis; S. faecalis (518), Mueller-Hinton broth, 37° C., 18 hours; read-out: Minimal Inhibitory Concentration (MIC)
Experimental: as §6, §7, §1, §2, §3, §8

[5] = test system: Streptococcus faecalis (509); experiment: MIC in broth, Gram+ strains; conditions: Enterococcus faecalis; S. faecalis (509), Mueller-Hinton broth, 37° C., 18 hours; read-out: Minimal Inhibitory Concentration (MIC)
Experimental: as §6, §7, §1, §2, §3, §8

[6] = test system: Bacillus pumilus (CN 607); experiment: MIC in broth, Gram+ strains; conditions: B. pumilus (CN 607), Mueller-Hinton broth, 37° C., 18 hours, read-out: Minimal Inhibitory Concentration (MIC)
Experimental: as §6, §7, §1, §2, §3, §8

[7] = test system: Streptococcus faecalis (505); experiment: MIC in broth, Gram+ strains; conditions: Enterococcus faecalis; S. faecalis (505), Mueller-Hinton broth, 37° C., 18 hours; read-out: Minimal Inhibitory Concentration (MIC)
Experimental: as §6, §7, §1, §2, §3, §8

[8] = test system: Streptococcus faecalis (516); experiment: MIC in broth, Gram+ strains; conditions: Enterococcus faecalis; S. faecalis (516), Mueller-Hinton broth, 37° C., 18 hours; read-out: Minimal Inhibitory Concentration (MIC)
Experimental: as §6, §7, §1, §2, §3, §8

[9] = test system: Streptococcus faecalis (501); experiment: MIC in broth, Gram+ strains; conditions: Enterococcus faecalis; S. faecalis (501), Mueller-Hinton broth, 37° C., 18 hours; read-out: Minimal Inhibitory Concentration (MIC)
Experimental: as §6, §7, §1, §2, §3, §8

[10] = test system: Streptococcus faecalis (R 2); experiment: MIC in broth, Gram+ strains; conditions: Enterococcus faecalis; S. faecalis (R 2), Mueller-Hinton broth, 37° C., 18 hours; read-out: Minimal Inhibitory Concentration (MIC)
Experimental: as §6, §7, §1, §2, §3, §8

[11] = test system: Streptococcus faecalis (519); experiment: MIC in broth, Gram+ strains; conditions: Enterococcus faecalis; S. faecalis (519), Mueller-Hinton broth, 37° C., 18 hours; read-out: Minimal Inhibitory Concentration (MIC)
Experimental: as §6, §7, §1, §2, §3, §8

[12] = test system: Staphylococcus aureus (LC1); experiment: MIC in broth, Gram+ strains; conditions: S. aureus (LC1), Mueller-Hinton broth, 37° C., 18 hours, read-out: Minimal Inhibitory Concentration (MIC)
Experimental: as §6, §7, §1, §2, §3, §8

[13] = test system: Bacillus subtilis (ATCC 6051); experiment: MIC in broth, Gram+ strains; conditions: ATCC6051, B. subtilis (ATCC 6051), Mueller-Hinton broth, 37° C., 18 hours, read-out: Minimal Inhibitory Concentration (MIC)
Experimental: as §6, §7, §1, §2, §3, §8

Gram+ bacterial strains = experiment: Mean MIC in broth and resistant strain number, Gram+ strains; conditions: 18 h, versus susceptible strains
Experimental: as §6, §7, §1, §2, §3, §8

[14] = test system: Klebsiella aerogenes (SH 1082); experiment: MIC in broth, Gram- strains; conditions: 18 h, read-out: Minimal Inhibitory Concentration (MIC)
Experimental: as §1, §2, §3, §4, §5

Salmonella typhi (J) = experiment: MIC in broth, Gram- strains; conditions: Salmonella enterica, 18 h, read-out: Minimal Inhibitory Concentration (MIC)
Experimental: as §1, §2, §3, §4, §5

Escherichia coli (92 F) = experiment: MIC in broth, Gram- strains; conditions: 18 h, E. coli (92 F), read-out: Minimal Inhibitory Concentration (MIC)
Experimental: as §1, §2, §3, §4, §5

[15] = test system: Enterobacter aerogenes (UM); experiment: MIC in broth, Gram- strains; conditions: Klebsiella aerogenes, 18 h, read-out: Minimal Inhibitory Concentration (MIC)
Experimental: as §1, §2, §3, §4, §5

Proteus mirabilis (32) = experiment: MIC in broth, Gram- strains; conditions: 18 h, read-out: Minimal Inhibitory Concentration (MIC)
Experimental: as §1, §2, §3, §4, §5

[16] = test system: Salmonella typhimurium (D.S.); experiment: MIC in broth, Gram- strains; conditions: Salmonella enterica, 18 h, read-out: Minimal Inhibitory Concentration (MIC)
Experimental: as §1, §2, §3, §4, §5

Proteus vulgaris (UM) = experiment: MIC in broth, Gram- strains; conditions: 18 h, read-out: Minimal Inhibitory Concentration (MIC)
Experimental: as §1, §2, §3, §4, §5

[17] = test system: Pseudomonas aeruginosa (10 E); experiment: MIC in broth, Gram- strains; conditions: 18 h, read-out: Minimal Inhibitory Concentration (MIC)
Experimental: as §1, §2, §3, §4, §5

Klebsiella oxytoca (552) = experiment: MIC in broth, Gram- strains; conditions: 18 h, read-out: Minimal Inhibitory Concentration (MIC)
Experimental: as §1, §2, §3, §4, §5

[18] = test system: Pseudomonas aeruginosa (3 E); experiment: MIC in broth, Gram- strains; conditions: 18 h, read-out: Minimal Inhibitory Concentration (MIC)
Experimental: as §1, §2, §3, §4, §5

Escherichia coli (R 57B) = experiment: MIC in broth, Gram- strains; conditions: 18 h, E. coli (R 57B), read-out: Minimal Inhibitory Concentration (MIC)
Experimental: as §1, §2, §3, §4, §5

Proteus morganii (D.S.) = experiment: MIC in broth, Gram- strains; conditions: Morganella morganii, 18 h, read-out: Minimal Inhibitory Concentration (MIC)
Experimental: as §1, §2, §3, §4, §5

[19] = test system: Klebsiella pneumoniae (7823); experiment: MIC in broth, Gram- strains; conditions: 18 h, read-out: Minimal Inhibitory Concentration (MIC)
Experimental: as §1, §2, §3, §4, §5

[20] = test system: Helicobacter pylori NCTC 11637; experiment: In vitro synergistic effect of ST 722 and Bismuth Subcitrate
Experimental: CBS from the commercially available product De-Nol® (Gist-Brocades, Netherland), i.e. ammonium and potassium double salt of colloidal bismuth citrate hydroxide, was utilized by preparing a suspension of 10 mg/ml CBS in 1N NaOH. After diluting 1:10 in Mueller-Hinton broth, 8 serial two-fold dlitutions in the same medium were made. The compound ST 722 was dissolved in Mueller-Hinton broth at a starting concentration of 100 mcg/ml, then 7 serial two-fold dilutions were carried out.
The "in vitro" anti-Helicobacter activity of both CBS and ST 722, alone and in association, was tested by utilizing the strain H. pylori NCTC 11637.
A 24-hour culture of Helicobacter in Columbia agar medium supplemented with Vitox (Oxoid) and 7% defribinated horse blood is washed with Mueller-Hinton broth.
Following densitometric evaluation (reading at 600 nm), the bacterial suspension was adjusted to a concentration of 1.0×10^9 cells/ml and 0.2-ml volumes were distributed into each well of a 96-well U-bottomed microtiter plate.
A 1-μl volume of this bacterial suspension was then distributed, by means of a Steers-type replicator apparatus, into the wells of microtiter plates containing the substances, either alone or in association. The final bacterial inoculum contained approximately 1.0×10^6 bacterial cells.
The procedure described by Garrod et al. (GARROD, L. P. and WATERWORTH, P. M., 1962. Methods of testing combined antibiotic bactericidal action and the significance of the results. J. Clin. Pathol. 15, 328-338) was utilized.
Briefly, 250-μl volumes of each test substance, either alone or admixed in all the possible combinations, were additioned to 4.5 ml of Mueller-Hinton agar containing 5% defribinated horse serum. Volumes of 0.2 ml/well of the resulting solution were distributed into the wells of a microtiter plate, then seeded with 1 μl/well of a standardized bacterial suspension, and finally incubated for 48 hours at 37° C. in a 10% CO2 atmosphere.
In order to evaluate the results obtained with combinations of antibiotics it was utilized the method (KROGSTAD, D. J. and MOELLERING, R. C., 1983. Antimicrobial combinations. In LORIAN, V., Antibiotics in Laboratory Medicine, 15, 537-549) based on the calculation of the Fractional Inhibitory Concentration Index (FIC index).
FIC index is calculated as follows: [formula] Where (A) is the MIC of substance A in the association and (MICA) is the […] of the organism to substance A alone. FICA is the fractional inhibitory concentration of substance A. (B), (MICB) and FICB are defined in the same fashion for substance B.
Based on these criteria, the effect of a combination of 2 substances is referred to as 'synergistic" when the FIC index is ≤0.5, "additive" with a FIC index=1, and "antagonist" when FIC index is >1.

CCCCCCCCCCCCOC(=O)CC(C[N+](C)(C)C)OC(=O)C(C)C (stereo not drawn) [ST 1038]
MIC (Gram- bacterial strains): 41.7 µg/mL
MIC [1]: 3.12 µg/mL
MIC [2]: 6.25 µg/mL
MIC [3]: 3.12 µg/mL
MIC [4]: 3.12 µg/mL
MIC [5]: 3.12 µg/mL
MIC [6]: 3.12 µg/mL
MIC [7]: 3.12 µg/mL
MIC [8]: 3.12 µg/mL
MIC [9]: 3.12 µg/mL
MIC [10]: 3.12 µg/mL
MIC [11]: 3.12 µg/mL
MIC [12]: 1.56 µg/mL
MIC [13]: 6.25 µg/mL
MIC (Gram+ bacterial strains): 3.48 µg/mL
MIC [14]: 50 µg/mL
MIC (Salmonella typhi (J)): 25 µg/mL
MIC (Escherichia coli (92 F)): 25 µg/mL
MIC [15]: 25 µg/mL
MIC (Proteus mirabilis (32)): > 100 µg/mL
MIC [16]: 25 µg/mL
MIC (Proteus vulgaris (UM)): 100 µg/mL
MIC [17]: 100 µg/mL
MIC (Klebsiella oxytoca (552)): 25 µg/mL
MIC [18]: 100 µg/mL
MIC (Escherichia coli (R 57B)): 100 µg/mL
MIC (Proteus morganii (D.S.)): 100 µg/mL
MIC [19]: 25 µg/mL

Colloidal Bismuth Subcitrate [CBS, reference compound]
FIC (fractional inhibitory concentration) ([20]; ST 722 with CBS): 0.50
MIC ([20]; substance alone, H. pylori NCTC 11637, 48 hours): 6.25 µg/mL

From US5498632A, “Esters of acyl carnitines with long-chain aliphatic alcohols and pharmaceutical compositions containing same having antibacterial activity” (Sigma-Tau Industrie Farmaceutiche Riunite S.p.A., priority 1992, dated 1996)
